Read-outs that look alike come from different tables or passages of the source. One block for each compound: values may come before it. Where a SMILES comes first, the peptide text is derived from it. Bridges are numbered along the chain shown (N, C = ends). [ ]: non-standard residue; d: D form. Trp(1-Me) = Cn1cc(C[C@H](N)C(=O)O)c2ccccc21; Bta = N[C@@H](Cc1csc2ccccc12)C(=O)O; Nva(3-Et) = CCC(CC)[C@H](N)C(=O)O; NMeI = CC[C@H](C)[C@H](NC)C(=O)O; aIle = CC[C@@H](C)[C@H](N)C(=O)O; Orn = NCCC[C@H](N)C(=O)O; Sar = CNCC(=O)O
Biological target: T1, human C3b (Homo sapiens, UniProt P01024)
T1 construct: purchased Complement Technology, Tyler, TX, USA
T1 sequence (P01024 23-667 limits assumed): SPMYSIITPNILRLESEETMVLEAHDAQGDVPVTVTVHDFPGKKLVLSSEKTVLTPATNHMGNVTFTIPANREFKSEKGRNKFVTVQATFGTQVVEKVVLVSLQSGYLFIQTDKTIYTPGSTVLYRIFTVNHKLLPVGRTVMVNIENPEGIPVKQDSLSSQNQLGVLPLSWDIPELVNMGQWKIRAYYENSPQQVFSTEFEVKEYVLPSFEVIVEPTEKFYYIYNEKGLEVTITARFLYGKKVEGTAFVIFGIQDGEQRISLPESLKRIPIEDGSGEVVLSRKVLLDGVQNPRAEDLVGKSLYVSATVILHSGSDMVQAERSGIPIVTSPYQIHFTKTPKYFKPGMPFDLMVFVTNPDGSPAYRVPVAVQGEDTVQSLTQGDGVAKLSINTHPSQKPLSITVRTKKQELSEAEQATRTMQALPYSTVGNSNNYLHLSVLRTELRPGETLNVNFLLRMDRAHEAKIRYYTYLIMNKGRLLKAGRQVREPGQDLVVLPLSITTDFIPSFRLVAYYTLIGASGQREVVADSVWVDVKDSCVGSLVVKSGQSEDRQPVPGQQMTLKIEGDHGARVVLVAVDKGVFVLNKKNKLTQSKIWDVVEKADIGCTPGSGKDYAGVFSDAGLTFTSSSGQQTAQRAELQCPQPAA
T1 sequence (P01024 749-1663 partner limits assumed): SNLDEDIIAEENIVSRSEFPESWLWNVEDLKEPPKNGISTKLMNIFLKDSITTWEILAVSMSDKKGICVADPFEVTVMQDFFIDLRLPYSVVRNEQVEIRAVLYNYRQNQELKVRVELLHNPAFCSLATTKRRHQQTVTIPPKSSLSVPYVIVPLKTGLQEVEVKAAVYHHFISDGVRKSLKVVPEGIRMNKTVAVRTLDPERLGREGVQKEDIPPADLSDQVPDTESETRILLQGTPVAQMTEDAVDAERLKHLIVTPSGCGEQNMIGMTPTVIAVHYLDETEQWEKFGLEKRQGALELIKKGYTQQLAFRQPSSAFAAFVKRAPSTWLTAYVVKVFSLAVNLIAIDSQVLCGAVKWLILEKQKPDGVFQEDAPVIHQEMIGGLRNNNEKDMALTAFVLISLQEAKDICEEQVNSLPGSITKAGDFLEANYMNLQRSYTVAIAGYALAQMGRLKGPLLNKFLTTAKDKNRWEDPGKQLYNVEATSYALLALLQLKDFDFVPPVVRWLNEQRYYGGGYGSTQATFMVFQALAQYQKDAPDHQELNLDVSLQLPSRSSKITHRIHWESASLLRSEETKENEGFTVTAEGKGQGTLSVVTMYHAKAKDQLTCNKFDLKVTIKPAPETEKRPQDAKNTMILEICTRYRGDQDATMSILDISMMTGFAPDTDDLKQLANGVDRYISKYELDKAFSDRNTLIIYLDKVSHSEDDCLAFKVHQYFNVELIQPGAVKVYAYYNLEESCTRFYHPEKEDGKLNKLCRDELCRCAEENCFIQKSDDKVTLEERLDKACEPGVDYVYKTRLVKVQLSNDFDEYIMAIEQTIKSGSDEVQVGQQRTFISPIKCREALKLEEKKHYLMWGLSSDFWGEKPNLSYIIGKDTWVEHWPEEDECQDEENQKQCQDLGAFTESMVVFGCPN
Test: SPR kinetic binding to immobilized human C3b
Procedure: Experiments were conducted at 25 °C in HBST buffer (10 mM HEPES, 150 mM NaCl, and 0.05% Tween-20, pH 7.4; XanTec bioanalytics). Human C3b (Complement Technology, Tyler, TX, USA) was immobilized via amine-reactive coupling. […] Individual peptide samples were injected for 120 s, followed by a 180 s dissociation phase. […] Signals from the reference cell and buffer blank injections were subtracted within each dilution series to correct for buffer effects and injection artifacts. Data were fitted to a Langmuir 1:1 binding model to calculate association (k a) and dissociation (k d) rate constants, and the equilibration constant K D is calculated based on the equation: K D = k d/k a. In the case of Cp40 derivatives and Cp60, a single-cycle approach was used for kinetic analysis by injecting 5 increasing concentrations of each compound (0.5-40 nM) consecutively without a regeneration period in between injections. Individual injections within a cycle were 120 s long with a 5 min dissociation phase between injections. […] Analog Cp40 was included in each experimental series as a reference and internal control. Signals from the reference cell and buffer blank injections were subtracted to correct for buffer effects and injection artifacts. Kinetic data were processed in BiaEvaluation (Cytiva) using single-cycle evaluation by global fitting each data set to a Langmuir 1:1 binding model. The reported kinetic parameters (Tables and ) indicate the mean values and standard deviations of three independent experiments. SPR sensorgrams are provided in the Supporting Information.

[1] = SPR, 1:1 Langmuir fit, average of 3 independent experiments, SD in brackets
[2] = SPR, 1:1 Langmuir fit, average of 3 independent experiments, SD in brackets, read-out: K D, affinity hC3b
[3] = SPR screening at 2 and 1 μM, series up to 16 μM, read-out: affinity hC3b (class symbol N.B./W.B.)

Structure (SMILES): CC[C@H](C)[C@H](NC(C)=O)C(=O)N[C@H]1CSSC[C@@H](C(=O)N[C@H](C(N)=O)[C@@H](C)O)NC(=O)[C@H](CCCNC(=N)N)NC(=O)[C@H](Cc2c[nH]cn2)NC(=O)[C@H](C)NC(=O)CNC(=O)[C@H](Cc2c[nH]c3ccccc23)NC(=O)[C@H](CO)NC(=O)[C@H](CCC(N)=O)NC(=O)[C@H](Cc2c[nH]c3ccccc23)NC(=O)[C@H](C(C)C)NC1=O [Cp01-Asp6Ser] (Ac-ICVWQSWGAHRCT-NH2; disulfide 2-12)
k a, affinity hC3b [1]: 3.1(0.9) 10^5 M^–1 s^–1
k d, affinity hC3b [1]: 18(3) 10^–2 s^–1
Kd [2]: 609 nM

Structure (SMILES): CC[C@H](C)[C@H](NC(C)=O)C(=O)N[C@H]1CSSC[C@@H](C(=O)N[C@H](C(N)=O)[C@@H](C)O)NC(=O)[C@H](CCCNC(=N)N)NC(=O)[C@H](Cc2c[nH]cn2)NC(=O)[C@H](C)NC(=O)CNC(=O)[C@H](Cc2c[nH]c3ccccc23)NC(=O)[C@H](CC(=O)O)NC(=O)[C@H](CCCCN)NC(=O)[C@H](Cc2c[nH]c3ccccc23)NC(=O)[C@H](C(C)C)NC1=O [Cp01-Gln5Lys] (Ac-ICVWKDWGAHRCT-NH2; disulfide 2-12)
binding to C3b (result in words) (SPR): no detectable target binding
Kd [3]: > 2000 nM

Structure (SMILES): CC[C@H](C)[C@H](NC(C)=O)C(=O)N[C@H]1CSSC[C@@H](C(=O)N[C@H](C(N)=O)[C@@H](C)O)NC(=O)[C@H](CCCNC(=N)N)NC(=O)[C@H](Cc2c[nH]cn2)NC(=O)[C@H](C)NC(=O)CNC(=O)[C@H](Cc2c[nH]c3ccccc23)NC(=O)[C@H](CC(=O)O)NC(=O)[C@H](CCCN)NC(=O)[C@H](Cc2c[nH]c3ccccc23)NC(=O)[C@H](C(C)C)NC1=O [Cp01-Gln5Orn] (Ac-ICVW[Orn]DWGAHRCT-NH2; disulfide 2-12)
binding to C3b (result in words) (SPR): no detectable target binding
Kd [3]: > 2000 nM

Structure (SMILES): CC[C@H](C)[C@H](NC(C)=O)C(=O)N[C@H]1CSSC[C@@H](C(=O)N[C@H](C(N)=O)[C@@H](C)O)NC(=O)[C@H](CCCNC(=N)N)NC(=O)[C@H](Cc2c[nH]cn2)NC(=O)[C@H](C)NC(=O)[C@H](C)NC(=O)[C@H](Cc2c[nH]c3ccccc23)NC(=O)[C@H](CC(=O)O)NC(=O)[C@H](CCC(N)=O)NC(=O)[C@H](Cc2c[nH]c3ccccc23)NC(=O)[C@H](C(C)C)NC1=O [Cp01-Gly8Ala] (Ac-ICVWQDWAAHRCT-NH2; disulfide 2-12)
binding to C3b (result in words) (SPR): diminished target binding
Kd [3]: > 2000 nM

Structure (SMILES): CC[C@H](C)[C@H](NC(C)=O)C(=O)N[C@H]1CSSC[C@@H](C(=O)N[C@H](C(N)=O)[C@@H](C)O)NC(=O)[C@H](CCCNC(=N)N)NC(=O)[C@H](Cc2c[nH]cn2)NC(=O)[C@H](C)NC(=O)CNC(=O)[C@H](Cc2c[nH]c3ccccc23)NC(=O)[C@H](CC(=O)O)NC(=O)[C@H](CCC(N)=O)NC(=O)[C@H](Cc2c[nH]c3ccccc23)NC(=O)C(C)(C)NC1=O [Cp01-Val3Aib]
Kd [3]: > 2000 nM

Structure (SMILES): CC[C@H](C)[C@H](NC(C)=O)C(=O)N[C@H]1CSSC[C@@H](C(=O)N[C@H](C(N)=O)[C@@H](C)O)NC(=O)[C@H](CCCNC(=N)N)NC(=O)[C@H](Cc2c[nH]cn2)NC(=O)[C@H](C)NC(=O)CNC(=O)[C@H](Cc2c[nH]c3ccccc23)NC(=O)[C@H](CC(=O)O)NC(=O)[C@H](CCC(N)=O)NC(=O)[C@H](Cc2c[nH]c3ccccc23)NC(=O)[C@H](C)NC1=O [Cp01-Val3Ala]
Kd [3]: > 2000 nM

Structure (SMILES): CC[C@H](C)[C@H](NC(C)=O)C(=O)N[C@H]1CSSC[C@@H](C(=O)N[C@H](C(N)=O)[C@@H](C)O)NC(=O)[C@H](CCCNC(=N)N)NC(=O)[C@H](Cc2c[nH]cn2)NC(=O)[C@H](C)NC(=O)CNC(=O)[C@H](Cc2c[nH]c3ccccc23)NC(=O)[C@H](CC(=O)O)NC(=O)[C@H](CCC(N)=O)NC(=O)[C@H](Cc2c[nH]c3ccccc23)NC(=O)[C@H](CC(C)C)NC1=O [Cp01-Val3Leu] (Ac-ICLWQDWGAHRCT-NH2; disulfide 2-12)
k a, affinity hC3b [1]: 2.0(0.5) 10^5 M^–1 s^–1
k d, affinity hC3b [1]: 11(1) 10^–2 s^–1
Kd [2]: 552 nM

Structure (SMILES): CC[C@H](C)[C@H](NC(C)=O)C(=O)N[C@H]1CSSC[C@@H](C(=O)N[C@H](C(N)=O)[C@@H](C)O)NC(=O)[C@H](CCCNC(=N)N)NC(=O)[C@H](Cc2c[nH]cn2)NC(=O)[C@H](C)NC(=O)CNC(=O)[C@H](Cc2c[nH]c3ccccc23)NC(=O)[C@H](CC(=O)O)NC(=O)[C@H](CCC(N)=O)NC(=O)[C@H](Cc2c[nH]c3ccccc23)NC(=O)[C@H](Cc2c[nH]c3ccccc23)NC1=O [Cp01-Val3Trp]
Kd [3]: > 2000 nM

More lines, now with the values ahead:

binding to C3b (result in words) (SPR): diminished target binding
Kd [3]: > 16000 nM
Structure (SMILES): CC[C@H](C)[C@H](NC(C)=O)C(=O)N[C@H]1CSSC[C@@H](C(=O)N[C@H](C(N)=O)[C@@H](C)O)NC(=O)[C@H](CCCNC(=N)N)NC(=O)[C@H](Cc2c[nH]cn2)NC(=O)[C@H](C)NC(=O)[C@@H](C)NC(=O)[C@H](Cc2c[nH]c3ccccc23)NC(=O)[C@H](CC(=O)O)NC(=O)[C@H](CCC(N)=O)NC(=O)[C@H](Cc2c[nH]c3ccccc23)NC(=O)[C@H](C(C)C)NC1=O [Cp01-Gly8dAla] (Ac-ICVWQDW[dA]AHRCT-NH2; disulfide 2-12)

Kd [3]: > 16000 nM
binding to C3b (result in words) (SPR, listed as W7Bta): strongly impaired affinity
Structure (SMILES): CC[C@H](C)[C@H](NC(C)=O)C(=O)N[C@H]1CSSC[C@@H](C(=O)N[C@H](C(N)=O)[C@@H](C)O)NC(=O)[C@H](CCCNC(=N)N)NC(=O)[C@H](Cc2c[nH]cn2)NC(=O)[C@H](C)NC(=O)CNC(=O)[C@H](Cc2csc3ccccc23)NC(=O)[C@H](CC(=O)O)NC(=O)[C@H](CCC(N)=O)NC(=O)[C@H](Cc2c[nH]c3ccccc23)NC(=O)[C@H](C(C)C)NC1=O [Cp01-Trp7Bta] (Ac-ICVWQD[Bta]GAHRCT-NH2; disulfide 2-12)

Kd [3]: > 2000 nM
Structure (SMILES): CC[C@H](C)[C@H](NC(C)=O)C(=O)N[C@H]1CSSC[C@@H](C(=O)N[C@H](C(N)=O)[C@@H](C)O)NC(=O)[C@H](CCCNC(=N)N)NC(=O)[C@H](Cc2c[nH]cn2)NC(=O)[C@H](C)NC(=O)CNC(=O)[C@H](Cc2c[nH]c3ccccc23)NC(=O)[C@H](CC(=O)O)NC(=O)[C@H](CCC(N)=O)NC(=O)[C@H](Cc2c[nH]c3ccccc23)NC(=O)[C@H](Cc2ccccc2)NC1=O [Cp01-Val3Phe]

Kd [2]: 1.5 nM
koff (SPR, read-out: dissociation rate k d): 0.002 s⁻¹
Structure (SMILES): CC[C@H](C)[C@H](NC(C)=O)C(=O)N[C@H]1CSSC[C@@H](C(=O)N[C@H](C(N)=O)[C@@H](C)O)NC(=O)[C@H](CCCNC(=N)N)NC(=O)[C@H](Cc2c[nH]cn2)NC(=O)[C@H](C)NC(=O)CNC(=O)[C@H](Cc2c[nH]c3ccccc23)NC(=O)[C@H](CC(=O)O)NC(=O)[C@H](CCC(N)=O)NC(=O)[C@H](Cc2cn(C)c3ccccc23)NC(=O)[C@H]([C@@H](C)CC)NC1=O [Cp05-Val3Ile] (Ac-ICI[Trp(1-Me)]QDWGAHRCT-NH2; disulfide 2-12)

k a, affinity hC3b [1]: 4.3(0.7) 10^5 M^–1 s^–1
k d, affinity hC3b [1]: 0.6(0.1) 10^–2 s^–1
Structure (SMILES): CCC(CC)[C@@H]1NC(=O)[C@@H](NC(=O)[C@@H](NC(=O)[C@H](N)Cc2ccc(O)cc2)[C@@H](C)CC)CSSC[C@@H](C(=O)N(C)[C@H](C(N)=O)[C@@H](C)CC)NC(=O)[C@H](CCCNC(=N)N)NC(=O)[C@H](Cc2c[nH]cn2)NC(=O)[C@H](C)NC(=O)CN(C)C(=O)[C@H](Cc2c[nH]c3ccccc23)NC(=O)[C@H](CC(=O)O)NC(=O)[C@H](CCC(N)=O)NC(=O)[C@H](Cc2cn(C)c3ccccc23)NC1=O [Cp40-Val3Dea] (H-[dY]IC[Nva(3-Et)][Trp(1-Me)]QDW[Sar]AHRC[NMeI]-NH2; disulfide 3-13)

k a, affinity hC3b [1]: 4.6(0.7) 10^5 M^–1 s^–1
k d, affinity hC3b [1]: 0.7(0.3) 10^–2 s^–1
Kd [2]: 15.6 nM
Structure (SMILES): CC[C@@H](C)[C@@H]1NC(=O)[C@@H](NC(=O)[C@@H](NC(=O)[C@H](N)Cc2ccc(O)cc2)[C@@H](C)CC)CSSC[C@@H](C(=O)N(C)[C@H](C(N)=O)[C@@H](C)CC)NC(=O)[C@H](CCCNC(=N)N)NC(=O)[C@H](Cc2c[nH]cn2)NC(=O)[C@H](C)NC(=O)CN(C)C(=O)[C@H](Cc2c[nH]c3ccccc23)NC(=O)[C@H](CC(=O)O)NC(=O)[C@H](CCC(N)=O)NC(=O)[C@H](Cc2cn(C)c3ccccc23)NC1=O [Cp40-Val3aIle] (H-[dY]IC[aIle][Trp(1-Me)]QDW[Sar]AHRC[NMeI]-NH2; disulfide 3-13)

Reference: paper PMC13181761, “New Analogs of the Compstatin Family of Clinical Complement Inhibitors with Low Picomolar Target Affinity” (Journal of Medicinal Chemistry, 2026)
